One may read the EC50 as the concentration needed to bring the measured effect to its halfway point. Broadly, the logD is the decadic logarithm of the distribution of all forms, ionised or not, between an organic phase and buffer at a given pH. The term solubility denotes how much of the substance goes into solution per volume.

This note sets out measurements from PMC11259170, “Small-molecule probe for IBD risk variant GPR65 I231L alters cytokine signaling networks through positive allosteric modulation” (Science Advances, 2024).

One data set deals with T1, hGPR65 (Homo sapiens, UniProt Q8IYL9).
T1 construct: expressed in transfected cells; host or cells: HeLa (ATCC CCL-2), lentiviral transduction, pLX317
T1 sequence (Q8IYL9 whole entry): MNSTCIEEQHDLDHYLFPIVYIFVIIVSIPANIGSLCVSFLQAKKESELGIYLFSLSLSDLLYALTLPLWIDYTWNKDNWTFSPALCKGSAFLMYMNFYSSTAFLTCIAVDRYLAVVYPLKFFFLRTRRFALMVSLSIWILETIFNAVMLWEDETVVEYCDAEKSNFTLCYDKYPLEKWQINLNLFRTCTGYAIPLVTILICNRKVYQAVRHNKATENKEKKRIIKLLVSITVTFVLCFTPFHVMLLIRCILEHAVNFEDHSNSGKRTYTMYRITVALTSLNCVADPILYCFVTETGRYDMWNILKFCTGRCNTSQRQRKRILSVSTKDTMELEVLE
Nature of the data set: cAMP detection in HeLa expression cell line, hGPR65. The data set is classed as cell-based. The note with it: for Emax: HeLa, read-out: hGPR Max Activity %; for Emax / hGPR Max Activity: relative to 100uM forskolin (100%) and DMSO (0%); for hGPR Max Activity: third pair. Put shortly: (§1)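 Lentivirally transduced HeLa, V5-tagged GPCR, puromycin 3 μg/ml. 1500 cells/well, stimulation buffer pH 7.2, compound (10 mM DMSO stock), 30 min RT. Lyse, detection reagents 1 h dark RT. TR-FRET cAMP kit, ex 337, em 620/665.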

Data set [1] can be described thus: Comment on solubility in SAR table. Type of data set: physicochemical. From the text: Supplement sciadv.adn2339_data_s1_to_s4.zip/sciadv.adn2339_data_s2.xlsx, sheet "SAR cAMP Assay"
Another data set concerns the target T2, mGPR65 (Mus musculus, UniProt Q61038).
T2 construct: expressed in transfected cells; host or cells: HeLa (ATCC CCL-2), lentiviral transduction, pLX317
The experiment in a line: cAMP detection in HeLa expression cell line, mGPR65. Type of data set: cell-based. The note with it: for mGPR Max Activity: third pair; for mGPR Max Activity / Emax: relative to 100uM forskolin (100%) and DMSO (0%); for Emax: HeLa, read-out: mGPR Max Activity %. The method in brief:
as §1

In data set [2] the test system is GFP-expressing HeLa cells. The experiment in a line: cAMP detection in HeLa expression cell line, GFP control. Type of data set: cell-based, human. To be noted: for EC50: SAR cAMP assay; for GFP Max Activity: third pair. The method in brief:
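HeLa cells stably expressing C-terminally V5-tagged receptor or GFP (lentiviral, puromycin 3 μg/ml) stimulated at 1500 cells per well for 30 min at RT with compound (10 mM DMSO stock) in stimulation buffer at pH 7.2. cAMP detected by Lance Ultra TR-FRET after lysis and 1 h detection, excitation 337 nm, emission 620/665 nm.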
On the technique in general: cAMP levels reflect the balance of adenylyl cyclase and phosphodiesterase activity.

The test system of data set [3] is WT HeLa cells expressing hGPR65. Nature of the data set: Cytotoxicity assay (CellTiter-Glo, 72 hours). Type of data set: cell-based, human. The procedure:
WT HeLa cells expressing hGPR65 were seeded at 2000 cells per well in 384-well plates. Compounds were tested in 10-point dose, starting at 50 μM. Cells were incubated with compounds for 72 hours at 37°C, 5% CO2. Cytotoxicity was measured using CellTiter-Glo Luminescent Cell Viability Assay (Promega, G7572) according to the manufacturer’s protocol. Luminescence measurements were made on BMG Labtech PHERAstar FSX. Data analysis was performed using GraphPad Prism.

The next data set in a line: Lipophilicity (logD). Type of data set: physicochemical.
A further data set deals with T3, hGPR65-SmBiT (Homo sapiens, UniProt Q8IYL9).
T3 construct: expressed in transfected cells; host or cells: Expi293F (Gibco), transient transfection
T3 sequence (Q8IYL9 whole entry): as above
The experiment in a line: Nano-BiT target engagement, LgBiT-mGs recruitment to hGPR65-SmBiT in Expi293F cells. Type of data set: cell-based. To be noted: 10 μM. The procedure:
(§2) Target engagement was measured in Expi293F (Gibco, 100044202) cells using the Nano-Glo Live Cell Assay System (Promega, N2011). Nano-BiT plasmids were cloned from GPR65-, GPR4-, and GPR68-Tango plasmids. GPR65-Tango (Addgene plasmid # 66370; http://n2t.net/addgene:66370; RRID:Addgene_66370), GPR4-Tango (Addgene plasmid # 66358; http://n2t.net/addgene:66358; RRID:Addgene_66358), and GPR68-Tango (Addgene plasmid # 66371; http://n2t.net/addgene:66371; RRID:Addgene_66371) were gifts from Bryan Roth. Expi293F cells were transfected 1 day before kinetics with 500 ng of each plasmid using ExpiFectamine 293 Transfection Kit (Gibco, A14525). After 24 hours, cells were collected, washed, and resuspended in room temperature 0.1% PBS-BSA, adjusted to pH 7.4 using 1 M NaOH. Cells were transferred to white opaque 96-well microplates (100 μl per well, PerkinElmer, 6005290), followed by addition of the Nano-Glo Live Cell Reagent (25 μl per well). Baseline luminescence was measured for 10 cycles (1 cycle = 90 s) before adding compounds. All luminescence measurements were made on BMG Labtech PHERAstar FSX. Data analysis was performed using GraphPad Prism.

Data set [4] in a line: Solubility in phosphate buffer. The data set is classed as physicochemical. To be noted: read-out: solubility in phosphate buffer.
Another data set addresses T4, mGPR65-SmBiT (Mus musculus, UniProt Q61038).
T4 construct: expressed in transfected cells; host or cells: Expi293F (Gibco), transient transfection
The experiment in a line: Nano-BiT target engagement, LgBiT-mGs recruitment to mGPR65-SmBiT. The data set is classed as cell-based. The note with it: 10 μM. As to the method: as §2

In a further data set the target is T5, hGPR4-SmBiT (Homo sapiens, UniProt P46093).
T5 construct: expressed in transfected cells; host or cells: Expi293F (Gibco), transient transfection
T5 sequence (P46093 whole entry): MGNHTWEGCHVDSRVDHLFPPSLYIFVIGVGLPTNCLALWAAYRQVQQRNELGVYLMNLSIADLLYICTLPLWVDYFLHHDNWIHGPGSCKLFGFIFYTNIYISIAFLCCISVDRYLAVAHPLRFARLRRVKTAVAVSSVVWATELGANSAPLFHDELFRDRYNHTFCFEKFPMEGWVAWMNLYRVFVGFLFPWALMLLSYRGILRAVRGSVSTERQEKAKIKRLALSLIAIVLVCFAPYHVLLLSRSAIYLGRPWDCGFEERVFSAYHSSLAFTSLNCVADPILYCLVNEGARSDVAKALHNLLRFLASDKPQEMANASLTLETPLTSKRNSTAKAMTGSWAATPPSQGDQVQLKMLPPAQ
The experiment in a line: Nano-BiT target engagement, LgBiT-mGs recruitment to hGPR4-SmBiT. The data set is classed as cell-based. To be noted: 10 μM. As to the method: as §2

In a further data set the target is T6, hGPR65 I231L-SmBiT (Homo sapiens, UniProt Q8IYL9, I231L).
T6 construct: expressed in transfected cells; host or cells: Expi293F (Gibco), transient transfection
T6 sequence (Q8IYL9 whole entry I231L): as the sequence (Q8IYL9 whole entry) above, with I231L counted along it
Nature of the data set: Nano-BiT target engagement, LgBiT-mGs recruitment to hGPR65 I231L-SmBiT. The data set is classed as cell-based. The note with it: 10 μM. The procedure:
as §2

Where [5] appears, read: SAR cAMP assay, first EC50/Max pair of hGPR columns, read-out: hGPR EC50.
The mark [6] stands for this setting: SAR cAMP assay, third EC50/Max pair of mGPR columns, read-out: mGPR EC50.
Where [7] appears, read: SAR cAMP assay, second EC50/Max pair of hGPR columns, read-out: hGPR EC50.
Where [8] appears, read: SAR cAMP assay, third EC50/Max pair of hGPR columns, read-out: hGPR EC50.
[9] abbreviates: Homo sapiens, HeLa, third EC50/Max pair of GFP control columns.
Where [10] appears, read: relative to 100uM forskolin (100%) and DMSO (0%).

Structures are written as SMILES. ≈ marks a conversion by molar mass, not a printed value. Like-named read-outs stand apart in the source and are kept apart here.

T2 sequence (Q61038 whole entry): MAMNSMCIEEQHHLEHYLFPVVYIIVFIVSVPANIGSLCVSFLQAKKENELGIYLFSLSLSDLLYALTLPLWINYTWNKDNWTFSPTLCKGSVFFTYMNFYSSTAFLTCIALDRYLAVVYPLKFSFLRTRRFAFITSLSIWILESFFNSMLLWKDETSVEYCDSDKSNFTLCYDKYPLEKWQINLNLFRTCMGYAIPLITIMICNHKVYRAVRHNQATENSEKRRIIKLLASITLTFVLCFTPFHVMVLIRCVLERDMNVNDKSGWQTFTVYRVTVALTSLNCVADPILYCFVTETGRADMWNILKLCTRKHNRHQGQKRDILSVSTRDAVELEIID
T4 sequence (Q61038 whole entry): as above

As to `Cc1ccc(NC(=O)c2cnn3c(O)cc(-c4ccc(-c5ccncc5)cc4)nc23)cc1` [BRD0844], on hGPR65 (first pair), the Emax stood at 30.3%. Moreover, on hGPR65 (setting [5]), the EC50 worked out at 7.97 µM. In addition, the “Comments (solubility)” value in data set [1] is given as “Poor solubility”.
For `Cc1ccc(NC(=O)c2cnn3c(O)cc(-c4ccc(-c5cccc(C(C)C)c5)cc4)nc23)cc1` [BRD4922], the EC50 at mGPR65 (setting [6]) stood at 0.9 µM; on hGPR65 (setting [5]) it was 3.82 µM; on hGPR65 (setting [7]), 1.42 µM; on hGPR65 (setting [8]), 0.688 µM; in data set [2] (Homo sapiens, HeLa, second EC50/Max pair of GFP control columns), 2.44 µM; in data set [2] (setting [9]), 6.47 µM. Further, the “mGPR Max Activity” value at mGPR65 came out at 35.02%. The Emax was 47.3% at hGPR65 (first pair); 51.9% at hGPR65 (second pair); 0.205% in data set [2] (Homo sapiens, HeLa, second pair, relative to 100uM forskolin (100%) and DMSO (0%), read-out: GFP Max Activity %). Besides, the “hGPR Max Activity” value at hGPR65 came to 55.72%. In addition, in [2] (setting [10]), the “GFP Max Activity” value is recorded as 1.632%. In addition, the “Comments (solubility)” value in [1] is given as “Poor solubility”.
As for `Cc1ccc(NC(=O)c2cnn3c(O)cc(-c4ccc(COC(C)C)cc4)nc23)c(F)c1` [BRD5080, O=C(NC1=C(F)C=C(C)C=C1)C2=C3N(N=C2)C(O)=CC(C4=CC=C(COC(C)C)C=C4)=N3], the cell viability result in [3] (50 μM, 72 hours) is recorded as “slight decrease in cell viability”. Moreover, the cytotoxicity entry in [3] (72-hour incubation, 0-50 μM) is “not cytotoxic”. Further, the “activity for mGPR65 among prioritized molecules” value on mGPR65 (1.56 μM, pH 7.2) is given as “highest activity”. The “cAMP response against mGPR65 among prioritized compounds” value at mGPR65 (HeLa cells) was “highest cAMP response”. Besides, the Emax at mGPR65 (2nd mGPR column pair, NA = no activity) was 56%; at mGPR65 (NA = no activity) it was 63.5%; on hGPR65 (1st hGPR column pair, NA = no activity), 80%; at hGPR65 (2nd hGPR column pair, NA = no activity), 70.4%. Also, the EC50 on mGPR65 (mGPR EC50 (uM), 2nd mGPR column pair, NA = no activity) is 0.371 µM; on mGPR65 (mGPR EC50 (uM), first pair of columns, pH 7.2, 30 min) it was 0.432 µM; on mGPR65 (mGPR EC50 (uM), second pair of columns, pH 7.2, 30 min), 0.653 µM; at mGPR65 (mGPR EC50 (uM), NA = no activity) it was 0.0578 µM; at hGPR65 (hGPR EC50 (uM), NA = no activity), 0.856 µM; on hGPR65 (hGPR EC50 (uM), pH 7.2, 30 min) it was 1.41 µM. Also, the concentration giving a half-maximal response (EC50) at hGPR65 (hGPR EC50, NA = no activity) turned out to be 1.66 µM; at hGPR65 (hGPR EC50, pH 7.2, 30 min), 1.5 µM. In addition, the “cAMP activity, mGPR65” value on mGPR65 (pH 7.2) is “at least 40%”. Also, the logD was 3.65 in “Lipophilicity (logD)” (pH 7.4, pH7.4, read-out: LogD (pH7.4)) and 3.62 in the data set “Lipophilicity (logD)” (read-out: lipophilicity (logD)). In addition, the “mGs recruitment / engagement of hGPR65” value at hGPR65-SmBiT is reported as “showed engagement”. The “activity after HCl versus water, hGPR65” value at hGPR65-SmBiT (HCl or H2O at cycle 10) is listed as “showed activity when preceded by the addition of HCl but not water”. Moreover, the “mode of action from pH-dependent cAMP production” value on hGPR65 (0 to 50 μM, pH range of 6.6 to 7.6) was “PAMs”. Besides, the “activity for hGPR65 among prioritized molecules” value on hGPR65 (1.56 μM, pH 7.2) is on record as “highest activity”. For the same compound, the “cAMP activity, hGPR65” value at hGPR65 (pH 7.2) is listed as “at least 40%”. Besides, in [4], the solubility was 13.6 µM (≈ 5.91 µg/mL). Moreover, on mGPR65-SmBiT, the “mGs recruitment / engagement of mGPR65” value is on record as “showed engagement”. Moreover, on mGPR65-SmBiT (HCl or H2O at cycle 10), the “activity after HCl versus water, mGPR65” value is given as “showed activity when preceded by the addition of HCl but not water”. In addition, the “response in cells expressing hGPR4-SmBiT” value on hGPR4-SmBiT is “failing to elicit responses”. In addition, the “G protein recruitment in cells expressing hGPR65 I231L” value at hGPR65 I231L-SmBiT is “able to recruit G protein”.
With `Cc1ccc(NC(=O)c2cnn3c(O)cc(-c4cccc(-c5ccccc5)c4)nc23)cc1` [BRD8101], the Emax on mGPR65 (second pair) is 73.1%; at hGPR65 (second pair) it was 7.53%. Also, the EC50 on mGPR65 (SAR cAMP assay, second EC50/Max pair of mGPR columns, read-out: mGPR EC50) was 0.566 µM; on mGPR65 (setting [6]), 0.0897 µM; on hGPR65 (setting [7]) it was 9.64 µM; at hGPR65 (setting [8]), 13.6 µM; in [2] (setting [9]), 3.2 µM. The “mGPR Max Activity” value on mGPR65 was found to be 82.45%. Further, the “hGPR Max Activity” value on hGPR65 worked out at 28.01%. Moreover, the “GFP Max Activity” value in [2] (setting [10]) amounted to 2.825%. Moreover, in data set [1], the “Comments (solubility)” value was “Poor solubility”.
